“Also recorded” adds a separate entry of the source.
Key:
[1] = system: Ch-1 cells; assay: Cell adhesion assay (Ch-1 cells on wells coated with recombinant proteins); assay type: cell-based, human; conditions: wells coated with recombinant protein
Procedure: Cell Adhesion Assay. Cell adhesion assays were performed using a spectrometric method. A 96-well plate was coated at 4° C. overnight with recombinant proteins. Wells were washed three times with RPMI-1640 medium containing 10% FBS. Ch-1 cells were harvested with limited trypsin digestion and plated at 5×10^4 cells per well in RPMI-1640 medium supplemented with 10% FBS for an hours. Proteins were added and incubation continued for 1 hour. The wells were washed three times with pre-warmed PBS to remove non-adherent cells. The adherent cells were fixed with 4% paraformaldehyde in PBS for 10 minutes at room temperature and stained with 0.5% toluidine blue for 5 minutes. The wells were rinsed with water and cells were solubilized with 0.1% SDS. Absorbance at 595 nm was recorded on a SpectraMax plate reader. Synthetic blocking peptides and antibodies to αVβ3 and αVβ5 integrin were pre-incubated with cells for 15 to 30 mins before they were added onto the wells in the inhibition assays.
Cell Culture. Human Chondrosarcoma cell line (Ch-1) was isolated from a portion of chondrosarcoma tumor (Chansky et al., J Orthop Res. (1998) 16(5):521-30). The Ch-1 cell line was maintained in RPMI-1640 supplemented with 10% FBS and at 37° C. in a humidified, 5% CO2 atmosphere.

[2] = system: Ch-1 cells; assay: Detection of cell death in Ch-1 cells; assay type: cell-based, human; conditions: 0.8 μM
Procedure: (§1) Cell Culture. Human Chondrosarcoma cell line (Ch-1) was isolated from a portion of chondrosarcoma tumor. The Ch-1 cell line was maintained in RPMI-1640 supplemented with 10% FBS and at 37° C. in a humidified, 5% CO2 atmosphere. Human chondrocytes were obtained from Dr. Davis Adkisson (ISTO Technologies, St. Louis) or isolated from macroscopically intact tissue obtained from total joint arthroplasty as described (Bassleer et al., 1998). HeLa 229 cells and MDA-MB 231 cell lines were provided by Dr. Kathy Weilbaecher (Washington University) and were cultured in RPMI medium supplemented with 10% FBS. HUVEC cells were a gift from Dr. William Frazier (Washington University) and were cultured in M199 Earle's medium with 10 units/ml of penicillin, 5 μg/ml streptomycin and 0.25 μg/ml Fungizone supplemented with 10% FBS, 0.1 mg/ml L-glutamine, 25 mM Hepes, 16 units/ml of heparin (Sigma) and 0.1 mg/ml endothelial cell mitogen (Biochemical Technologies).
(§2) Detection of Cell Death. Cells were cultured to confluence in a 24-well plate pre-coated with type I collagen, fibronectin (Sigma), and ECM Matrigel (Becton Dickinson). Proteins in serum-free medium were added to the cells. Cells were monitored by light microscopy and images were digitally photographed using a Q capture Retiga 2000R camera. Quantification of cells remaining in the well was performed by washing with PBS for three times, fixing with 4% paraformaldehyde. The cells per field (×400) were counted for three field per well (3 wells per measurement). The mean number and standard deviation (SD) were calculated.

[3] = system: HeLa 229 cells; assay: Cell survival assay in HeLa 229 cells; assay type: cell-based, human
Procedure: (§3) Cell Culture. Human Chondrosarcoma cell line (Ch-1) was isolated from a portion of chondrosarcoma tumor. […] HUVEC cells were a gift from Dr. William Frazier (Washington University) and were cultured in M199 Earle's medium with 10 units/ml of penicillin, 5 μg/ml streptomycin and 0.25 μg/ml Fungizone supplemented with 10% FBS, 0.1 mg/ml L-glutamine, 25 mM Hepes, 16 units/ml of heparin (Sigma) and 0.1 mg/ml endothelial cell mitogen (Biochemical Technologies).
as §2

[4] = system: MDA-MB231 cells; assay: Cell survival assay in MDA-MB231 cells; assay type: cell-based, human
Procedure: as §3, §2

[5] = system: normal human articular chondrocytes; assay: Cell survival assay in normal human articular chondrocytes; assay type: cell-based; conditions: high-density monolayers
Procedure: as §1
as §2, with “Cells were cultured to confluence in a 24-well plate pre-coated with type I collagen, fibronectin (Sigma), and ECM Matrigel (Becton Dickinson). Proteins in serum-free medium were added to the cells.” left out

[6] = system: HUVEC cells; assay: Tube formation assay; assay type: cell-based, human
Procedure: Tube Formation Assay. The tube formation assay using HUVEC cells was performed as described with some modification. Briefly, a suspension of 7.5×10^4 cells/well in complete medium was seeded into a Matrigel-coated 24-well plate in the presence of recombinant PIIBNP or GST (0-10 μM). The formation of tubes was evaluated using light microscopy and quantification was performed using a Q Capture Pro imaging software. Branch points per field were counted from three fields for each treatment.

[7] = system: rings of rat aorta; assay: Aortic ring formation assay
Procedure: FIG. 8 depicts a graph and photograph showing rat aortic ring formation. Angiogenesis was assayed by culturing rings of rat aorta in three-dimensional collagen gel. The culture was performed at 37° C. in a humidified environment for a week in the presence FGF and mPIIBNP or PIIBNP (0.1 to 3 mM). The microvessel outgrowth was examined and visualized every second day with an Olympus microscope. The pictures were taken before the measurement of the microvessels. (FIG. 8A) The length of microvessels was measured and total length for each measurement was added (FIG. 8B). PIIBNP inhibited aortic ring formation, with an IC50 of less than 0.1 μM.
Aortic Ring Formation Assay. Angiogenesis was assayed by culturing rings of rat aorta in three-dimensional collagen gels as reported. The cultures were kept at 37° C. in a humidified environment for a week in the presence of FGF and GST or PIIBNP (0.1-10 μM). The microvessel outgrowth was examined every second day with an Olympus microscope. The length of microvessels was measured and total length for each measurement was added.

[8] = system: Ch-1 cells; assay: Migration of Ch-1 cells; assay type: cell-based, human; conditions: data not shown
[9] = system: Ch-1 cells; assay: Internalization of propeptides (immunostaining); assay type: cell-based, human
Excerpt: Ch-1 cells exposed to GST-PIIBNP and GST-PIIANP were immunostained with immunospecific antibodies. […] The internalization of PIIBNP may be exploited to target exogenous agents to cells expressing αVβ3 and αVβ5 integrins.

[10] = system: osteoclasts differentiated from Raw 264.7 cells, integrin αv siRNA treated; assay: Osteoclast death after integrin αv siRNA; assay type: cell-based, mouse; conditions: 16 hours
Procedure: FIG. 11 depicts a graph showing PIIBNP-induced osteoclast death. siRNA specifically targeted to integrin αv was purchased from San Cruz (San Cruz, Calif.). Raw 264.7 cells were differentiated into osteoclasts by treatment with 100 nM of s-RANKL. The integrin αv expression in the […] were suppressed by treatment of the cells with siRNA. Integrin αv suppressed osteoblasts were incubated with recombinant GST, PIIBNP or mPIIBNP for 16 hours. Cell viability was assayed by a trypan blue exclusion test as described in FIG. 3.

PIIBNP: Recombinant human Type IIB procollagen NH2-propeptide (exons 3-8, lacking exon 2), expressed as GST fusion protein
adhesion to Ch-1 cells [1]: shown to adhere
adhesion to Ch-1 cells ([1]; listed as GST-PIIBNP): strong binding
cell survival [2]: 20-30%
induction of cell death in Ch-1 cells ([2]; serum free medium, 24 hrs, type I collagen, fibronectin or Matrigel coated plates): resulted in cell death in a concentration and time-dependent manner; also recorded: induced cell death
cell death ([3]; HeLa 229 cells, FIG. 4M): > 80%
survival ([3]; HeLa cells): 20%
cell survival ([4]; MDA cells): 30%
cell death ([4]; MDA-MB231 cells, FIG. 4L): > 70%
induction of cell death in normal chondrocytes [5]: did not induce cell death
tube formation inhibited ([6]; 0.1 μM): 50%
inhibition of tube formation ([6]; Matrigel-coated plates, 0-10 μM): able to inhibit the formation of tubes in a dose-dependent manner
inhibition of endothelial outgrowth from rat aorta ([7]; freshly isolated rat aorta): able to inhibit endothelial outgrowth in a concentration dependent manner
IC50 ([7]; three-dimensional collagen gel, FGF, a week, read-out: IC50 of inhibition of aortic ring formation): < 100 nM
inhibition of migration of Ch-1 cells [8]: can inhibit migration
internalization into cells [9]: is internalized
colocalization with actin filaments ([9]; 30 minutes of exposure): colocalized with actin filaments
localization to the nucleus ([9]; 2 hours of exposure): localized to the nucleus; also recorded: colocalized with the nucleus
PIIBNP-induced osteoclast death after integrin αv siRNA compared with control siRNA [10]: significantly reduced

— US7851436B2, “Inhibition of migration and induction of cell death by the type II collagen amino propeptides” (Washington University, priority 2007, dated 2010)
